US8058243B2, “Method for treating a brain cancer with ifenprodil” (HSC Research and Development Limited Partnership, priority 2006, dated 2011)
Where a name gives a salt, the structure may show the parent alone. Read-outs that look alike come from different tables or passages of the source.

Test system: murine neural precursor cells (neurosphere cultures)
Test: HTS of LOPAC library against secondary neurosphere cultures, MTT proliferation assay at 3 μM, day 7 (z score, P value)
Assay type: cell-based, mouse
[1] = LOPAC library screen, 3 μM, MTT, secondary neurosphere cultures, day 7
[2] = LOPAC screen, neurosphere MTT proliferation, 3 μM, day 7
[3] = yes/no: significantly inhibited neurosphere proliferation (P<0.01) in primary screen
[4] = LOPAC library screen at 3 μM, secondary neurosphere cultures, MTT
[5] = LOPAC library screen at 3 μM, MTT, secondary neurosphere cultures, screened in singlets
[6] = LOPAC primary screen, neurosphere MTT proliferation, 3 μM, day 7
[7] = LOPAC library screen, 3 μM, MTT, neurosphere cultures
[8] = yes/no: significantly inhibited neurosphere proliferation in primary screen
[9] = primary LOPAC screen, 3 μM, MTT, neurosphere proliferation
[10] = yes/no: significantly inhibited neurosphere proliferation in the primary screen
[11] = yes/no: significantly inhibited neurosphere proliferation (P<0.01) in the primary screen

SMILES: CN(C)CCCC1(c2ccc(F)cc2)OCc2cc(C#N)ccc21 (centres unmarked) [Citalopram hydrobromide]
- Z Score [1]: −1.858
- Z score [2]: −1.858
- Activity [3]: no

SMILES: C[N+](C)(C)CCOP(=O)([O-])OP(=O)([O-])OC[C@H]1O[C@@H](n2ccc(N)nc2=O)[C@H](O)[C@@H]1O.[Na+] [Citicoline sodium]
- Z Score [4]: −0.1331
- Z score [2]: −0.133
- Activity [3]: no

SMILES: CN1CCC[C@@H]1CCO[C@](C)(c1ccccc1)c1ccc(Cl)cc1 [Clemastine fumarate]
- Z Score (168 h, 3 µM): −2.023
- Z score (168 h, 3 µM): −2.023

SMILES: Clc1ccc(Cn2c(CN3CCCC3)nc3ccccc32)cc1 [Clemizole hydrochloride]
- Z Score [5]: 2.788
- Z score [2]: 2.788
- Activity [3]: no

SMILES: O=P(O)(O)C(Cl)(Cl)P(=O)(O)O [Clodronic acid]
- Z Score [4]: −0.1842
- Z score [2]: −0.184
- Activity [3]: no

SMILES: CCOC(=O)C(C)(C)Oc1ccc(Cl)cc1 [Clofibrate]
- Z Score [1]: −1.738
- Z score [2]: −1.738

SMILES: CN(C)CCCN1c2ccccc2CCc2ccc(Cl)cc21 [Clomipramine hydrochloride]
- Activity: no
- Z Score [4]: −0.8439
- Z score [6]: −0.844

SMILES: Clc1cccc(Cl)c1N=C1NCCN1 [Clonidine hydrochloride]
- Z Score [7]: 1.041
- Z score [2]: 1.041
- Activity [3]: no

SMILES: C#CCN(C)CCCOc1ccc(Cl)cc1Cl [Clorgyline hydrochloride]
- Activity: no
- Z Score [5]: 1.52
- Z score [6]: 1.520

SMILES: Clc1ccccc1C(c1ccccc1)(c1ccccc1)n1ccnc1 [Clotrimazole]
- Z Score [4]: −0.7158
- Z score [2]: −0.716
- Activity [3]: no

SMILES: CN1CCN(C2=Nc3cc(Cl)ccc3Nc3ccccc32)CC1 [Clozapine]
- Z Score (168 h, 3 µM): 0.5473
- Z score (168 h, 3 µM): 0.547

SMILES: COc1cc2c(c(OC)c1OC)-c1ccc(OC)c(=O)cc1[C@@H](NC(C)=O)CC2 [Colchicine]
- Activity: yes
- Z Score: −10.75
- Z score: −10.753

SMILES: C[C@]12CCC(=O)C=C1CC[C@@H]1[C@@H]2CC[C@@]2(C)[C@H]1CC[C@]2(O)C(=O)CO [Cortexolone]
- Z Score [4]: −0.6087
- Z score [6]: −0.609
- Activity [8]: no

SMILES: C[C@]12C[C@H](O)[C@H]3[C@@H](CCC4=CC(=O)CC[C@@]43C)[C@@H]1CC[C@@H]2C(=O)CO [Corticosterone]
- Activity: no
- Z Score [1]: −2.285
- Z score [9]: −2.285

SMILES: CC(=O)OCC(=O)[C@@]1(O)CC[C@H]2[C@@H]3CCC4=CC(=O)CC[C@]4(C)[C@H]3C(=O)C[C@@]21C [Cortisone 21-acetate]
- Z Score [1]: −2.218
- Z score [2]: −2.218
- Activity [3]: no

SMILES: C[C@]12CCC(=O)C=C1CC[C@@H]1[C@@H]2C(=O)C[C@@]2(C)[C@H]1CC[C@]2(O)C(=O)CO [Cortisone]
- Z Score [4]: −0.5807
- Z score [9]: −0.581
- Activity [10]: no

SMILES: CN(C)CCC=C1c2ccccc2C=Cc2ccccc21 [Cyclobenzaprine hydrochloride]
- Z Score [7]: 0.07186
- Z score [2]: 0.072
- Activity [3]: no

SMILES: O=P1(N(CCCl)CCCl)NCCCO1 (centres unmarked) [Cyclophosphamide monohydrate]
- Activity: no
- Z Score: −0.9758
- Z score: −0.976

SMILES: NS(=O)(=O)c1cc2c(cc1Cl)NC(C1CC3C=CC1C3)NS2(=O)=O (centres unmarked) [Cyclothiazide]
- Z Score [4]: −0.907
- Z score [2]: −0.907
- Activity [3]: no

SMILES: CN1CCC(=C2c3ccccc3C=Cc3ccccc32)CC1 [Cyproheptadine hydrochloride]
- Z Score (168 h, 3 µM): 1.232
- Z score (168 h, 3 µM): 1.232
- Activity [3]: no

SMILES: CC(=O)O[C@]1(C(C)=O)CC[C@H]2[C@@H]3C=C(Cl)C4=CC(=O)[C@@H]5C[C@@H]5[C@]4(C)[C@H]3CC[C@@]21C [Cyproterone acetate]
- Z Score [1]: −1.803
- Z score [2]: −1.803
- Activity [3]: no

SMILES: Cl.Cl.NCCSSCCN [Cystamine dihydrochloride]
- Z Score: 2.23
- Z score [2]: 2.230
- Activity [3]: no

SMILES: NCCS [Cysteamine hydrochloride]
- Z Score [4]: −0.5989
- Z score [6]: −0.599
- Activity (yes = significantly inhibited neurosphere proliferation (P<0.01) in the primary screen): no

SMILES: N[C@H](CCCCCP(=O)(O)O)C(=O)O [D(−)-2-Amino-7-phosphonoheptanoic acid]
- Activity: no
- Z Score: 0.9855
- Z score: 0.985

SMILES: S=C([S-])OC1CC2CC1C1CCCC21.[K+] [D-609 potassium]
- Z Score [4]: −0.8964
- Z score [9]: −0.896
- Activity [10]: no

SMILES: N[C@@H]1CONC1=O [D-Cycloserine]
- Z Score [1]: −1.24
- Z score [2]: −1.240
- Activity [3]: no

SMILES: N[C@H](CO)C(=O)O [D-Serine]
- Z Score [4]: −0.1429
- Z score [6]: −0.143
- Activity [8]: no

SMILES: OC[C@H]1O[C@@H](n2cnc3ccccc32)[C@H](O)[C@@H]1O [D-ribofuranosylbenzimidazole]
- Z Score: −2.144
- Z score [2]: −2.144
- Activity [3]: no

SMILES: Clc1ccc(N2CC3CCC(C2)N3)nn1 [DBO-83]
- Z Score: −1.279
- Z score [2]: −1.279
- Activity [3]: no

SMILES: CCn1c(=O)[nH]c2cc(Cl)c(Cl)cc21 [DCEBIO]
- Z Score: 0.8099
- Z score [2]: 0.810
- Activity [3]: no

SMILES: CCC(=O)N1CCN(C(=O)c2ccccc2)CC1 [DM 235]
- Z Score: −2.019
- Z score [2]: −2.019
- Activity [3]: no

SMILES: O=[N+]([O-])c1cc2nc(O)c(O)nc2cc1[N+](=O)[O-] [DNQX]
- Z Score: 0.9307
- Z score [2]: 0.931
- Activity [3]: no

SMILES: COc1cc(OC)cc(C(CNc2ncnc3c2ncn3[C@@H]2O[C@H](CO)[C@@H](O)[C@H]2O)c2ccccc2C)c1 (some centres unmarked) [DPMA]
- Z Score: 0.03628
- Z score [2]: 0.036
- Activity [3]: no

SMILES: CCN(CCCl)Cc1ccccc1Br.Cl [DSP-4 hydrochloride]
- Z Score: 1.518
- Z score [6]: 1.518
- Activity [11]: no

SMILES: O=c1c(-c2ccc(O)cc2)coc2cc(O)ccc12 [Daidzein]
- Z Score [1]: −2.931
- Z score [6]: −2.931
- Activity [11]: yes

SMILES: C#C[C@]1(O)CC[C@H]2[C@@H]3CCC4=Cc5oncc5C[C@]4(C)[C@H]3CC[C@@]21C [Danazol]
- Z Score [5]: 2.152
- Z score [2]: 2.152
- Activity [3]: no

SMILES: O=C1CN(/N=C/c2ccc(-c3ccc([N+](=O)[O-])cc3)o2)C(O)=N1 [Dantrolene sodium]
- Activity: no
- Z Score [7]: 0.7985
- Z score [2]: 0.798

SMILES: O=c1ccc2ccc(O)c(O)c2o1 [Daphnetin]
- Activity: no
- Z Score (168 h, 3 µM): −0.9798
- Z score (168 h, 3 µM): −0.980

SMILES: N=C(N)N1CCc2ccccc2C1 [Debrisoquin sulfate]
- Z Score [4]: −0.3034
- Z score [2]: −0.303
- Activity [3]: no

SMILES: C[N+](C)(C)CCCCCCCCCC[N+](C)(C)C.[Br-].[Br-] [Decamethonium dibromide]
- Z Score: −1.572
- Z score [6]: −1.572
- Activity [11]: no

SMILES: CN(C)[C@@H]1C(O)=C(C(N)=O)C(=O)[C@@]2(O)C(O)=C3C(=O)c4c(O)ccc(Cl)c4[C@@H](O)[C@H]3C[C@@H]12 [Demeclocycline hydrochloride]
- Z Score [7]: −0.06452
- Z score [2]: −0.065
- Activity [3]: no

SMILES: CN(N=O)c1cc(O)ccc1O [Dephostatin]
- Z Score: 0.6209
- Z score [2]: 0.621
- Activity [3]: no

SMILES: Cc1cc(N)c2ccccc2[n+]1CCCCCCCCCC[n+]1c(C)cc(N)c2ccccc21 [Dequalinium (29), Dequalinium, reference compound]
- Z Score [1]: −9.54
- Z score [6]: −9.540
- Activity [11]: yes

SMILES: Cc1cc(N)c2ccccc2[n+]1CCCCCCCCCCCCCC[n+]1c(C)cc(N)c2ccccc21 [Dequalinium analog, C-14 linker]
- Z Score [1]: −11.27
- Z score [6]: −11.274
- Activity [11]: yes

SMILES: CNCCCN1c2ccccc2CCc2ccccc21 [Desipramine hydrochloride]
- Z Score [7]: 0.1226
- Z score [2]: 0.123
- Activity [3]: no

SMILES: O=c1c2ccccc2[nH]c(=S)n1CCN1CCC(=C(c2ccc(F)cc2)c2ccc(F)cc2)CC1 [Diacylglycerol Kinase Inhibitor II]
- Z Score [1]: −1.39
- Z score [2]: −1.390
- Activity [3]: no

SMILES: Cc1nc2sccn2c(=O)c1CCN1CCC(=C(c2ccccc2)c2ccc(F)cc2)CC1 [Diacylglycerol kinase inhibitor I]
- Z Score: −1.782
- Z score [2]: −1.782
- Activity [3]: no

SMILES: CC1=NS(=O)(=O)c2cc(Cl)ccc2N1 [Diazoxide]
- Z Score [7]: 0.04511
- Z score [2]: 0.045
- Activity [3]: no

SMILES: O=C(O)Cc1ccccc1Nc1c(Cl)cccc1Cl [Diclofenac sodium]
- Z Score [7]: 0.2988
- Z score [2]: 0.299
- Activity [3]: no

SMILES: CCN(CC)CCOC(=O)C1(C2CCCCC2)CCCCC1 [Dicyclomine hydrochloride]
- Z Score (168 h, 3 µM): 1.414
- Z score (168 h, 3 µM): 1.414

SMILES: O=C(O)CN(CCN(CC(=O)O)CC(=O)O)CCN(CC(=O)O)CC(=O)O [Diethylenetriaminepentaacetic acid]
- Z Score [4]: −0.4576
- Z score [6]: −0.458
- Activity [11]: no

SMILES: Br.CO[C@H]1CC=C2CCN3CCC4=C(CC(=O)OC4)[C@]23C1 [Dihydro-beta-erythroidine hydrobromide]
- Z Score: −1.788
- Z score [6]: −1.788
- Activity [3]: no
